In patent US20250381198A1 (Melt Pharmaceuticals, Inc., priority 2024, published 2025):

Tests used:
[1] = tested on: subjects undergoing cataract extraction with lens replacement (CELR); assay: Phase 2: treatment-emergent ocular adverse events and serious adverse events; conditions: for Cataract operation complication, % / Conjunctivitis bacterial, % / Corneal abrasion, % / Corneal oedema, % / Endophthalmitis, % / Eye disorders, % / Eye pain, % / Foreign body sensation in eyes, % / General disorders and administration site conditions, % / Infections and infestations, % / Injury, poisoning and procedural complications, % / Intraocular pressure increased, % / Investigations, % / Ocular hypertension, % / Pain, % / Paracentesis eye, % / Procedural pain, % / Subjects with Any Treatment-Emergent Ocular AEs, % / Vision blurred, %: Full Analysis Set; for Subjects who experienced a treatment-emergent ocular adverse event, study eye: overall, MELT-300, midazolam alone, ketamine alone
Experimental: The study eye (TABLE 32) non-study eye (TABLE 33), or either eye (TABLE 34) was assessed. TEAES were defined as events that started on or after the date of the study drug administration through the end of Visit 4 or early withdrawal. Subjects with one or more adverse event within a level of Medical Dictionary for Regulatory Activities (MedDRA) were counted only once in that level. […] TEAEs of special interest by system, organ class, and preferred term are provided in TABLE 35 for the full analysis set.

[2] = tested on: subjects undergoing cataract extraction with lens replacement (CELR); assay: Phase 2: subjects completing the surgery (and without interruption); type: in vivo, human; conditions: Visit 2 (Day 1); Full Analysis Set
Experimental: The number of subjects achieving analgesia response (observed) in the full analysis set was determined. Success in analgesia response was defined as NPRS<4 at the available at the available four intraoperative timepoints and a failure otherwise (e.g., any interoperative pain rescue was assumed to be a failure. Results are provided in TABLE 25. The number of subjects completing the surgery is provided in TABLE 26, and the number of subjects completing the surgery without interruption is provided in TABLE 27. For this measure, subjects completing the surgery without interruption (other than rescue medication) due to pain or anxiety were considered successes. The number of subjects requiring rescue sedative medication and those requiring analgesic medication are provided in TABLES 28 and 29, respectively. For all TABLES 25-29, p-Values between pairs of treatments were calculated and are provided.

[3] = tested on: subjects undergoing cataract extraction with lens replacement (CELR); assay: Phase 3: preoperative procedural sedation responders (second key secondary); type: in vivo, human; conditions: for Preoperative procedural sedation responder - n: number of subjects
[4] = tested on: subjects undergoing cataract extraction with lens replacement (CELR); assay: Phase 3: patient satisfaction (5-point Likert scale); type: in vivo, human; set-up: key to Patient Satisfaction Scores, Min / Patient Satisfaction Scores, Max: 5=very satisfied; 4=satisfied; 3=neither satisfied nor dissatisfied; 2=dissatisfied; 1=very dissatisfied; conditions: ITT analysis set
Experimental: (§1) Patient satisfaction with the operative experience was measured at the Follow-Up visit using a 5-point Likert scale (5=very satisfied; 4=satisfied; 3=neither satisfied nor dissatisfied; 2=dissatisfied; 1=very dissatisfied). […] The means were compared using 2-sample t-tests and the Satterthwaite method. The proportion of satisfied responses (‘Very Satisfied’ or ‘Satisfied’, pooled) were tested using a Pearson's chi-square test; and a Fisher's exact test was used instead if any expected values were <5.

[5] = tested on: subjects undergoing cataract extraction with lens replacement (CELR); assay: Phase 3: surgery completion; type: in vivo, human
Text: A plot of the Kaplan-Meier Curve for time to achieve preoperative target sedation level for the all-treated analysis set is provided in FIG. 5.

[6] = tested on: subjects undergoing cataract extraction with lens replacement (CELR); assay: Phase 3: surgeon satisfaction (5-point Likert scale); type: in vivo, human; set-up: key to Surgeon Satisfaction Scores, Min / Surgeon Satisfaction Scores, Max: 5=very satisfied; 4=satisfied; 3=neither satisfied nor dissatisfied; 2=dissatisfied; 1=very dissatisfied; conditions: ITT analysis set
Experimental: as §1, with “Surgeon” for “Patient”, “postoperatively on Day 1” for “at the Follow-Up visit”

[7] = Non-Study Eye (as printed in Table 33)

What does the source list for `CNC1(c2ccccc2Cl)CCCCC1=O` (centres unmarked) [Ketamine, 2-(2-chlorophenyl)-2-(methylamino)cyclohexanone]?
Cataract operation complication, % ([1]; Either Eye): (0) %; Conjunctivitis bacterial, % ([1]; Either Eye): (1.2) %; Corneal abrasion, % ([1]; Either Eye): (0) %; Corneal oedema, % ([1]; Either Eye): (1.2) %; Endophthalmitis, % ([1]; Either Eye): (1.2) %; Eye disorders, % ([1]; Either Eye): (5.9) %; Eye pain, % ([1]; Either Eye): (3.5) %; Foreign body sensation in eyes, % ([1]; Either Eye): (0) %; General disorders and administration site conditions, % ([1]; Either Eye): (0) %; Infections and infestations, % ([1]; Either Eye): (2.4) %; Injury, poisoning and procedural complications, % ([1]; Either Eye): (0) %; Intraocular pressure increased, % ([1]; Either Eye): (1.2) %; Investigations, % ([1]; Either Eye): (1.2) %; Ocular hypertension, % ([1]; Either Eye): (1.2) %; Pain, % ([1]; Either Eye): (0) %; Paracentesis eye, % ([1]; Either Eye): (0) %; Procedural pain, % ([1]; Either Eye): (0) %; Subjects with Any Treatment-Emergent Ocular AEs, % ([1]; Either Eye): (8.2) %; Vision blurred, % ([1]; Either Eye): (0) %; Paracentesis eye, % [1, 7]: (0) %; Conjunctivitis bacterial, % ([1]; Non-Study Eye): (1.2) %; Eye disorders, % ([1]; Non-Study Eye): (0) %; Eye pain, % ([1]; Non-Study Eye): (0) %; Infections and infestations, % ([1]; Non-Study Eye): (1.2) %; Subjects with Any Treatment-Emergent Ocular AEs, % ([1]; Non-Study Eye): (1.2) %; Vision blurred, % ([1]; Non-Study Eye): (0) %; Cataract operation complication, % ([1]; Study Eye): (0) %; Corneal abrasion, % ([1]; Study Eye): (0) %; Corneal oedema, % ([1]; Study Eye): (1.2) %; Endophthalmitis, % ([1]; Study Eye): (1.2) %; Eye disorders, % ([1]; Study Eye): (5.9) %; Eye pain, % ([1]; Study Eye): (3.5) %; Foreign body sensation in eyes, % ([1]; Study Eye): (0) %; General disorders and administration site conditions, % ([1]; Study Eye): (0) %; Infections and infestations, % ([1]; Study Eye): (1.2) %; Injury, poisoning and procedural complications, % ([1]; Study Eye): (0) %; Intraocular pressure increased, % ([1]; Study Eye): (1.2) %; Investigations, % ([1]; Study Eye): (1.2) %; Ocular hypertension, % ([1]; Study Eye): (1.2) %; Pain, % ([1]; Study Eye): (0) %; Procedural pain, % ([1]; Study Eye): (0) %; Subjects with Any Treatment-Emergent Ocular AEs, % ([1]; Study Eye): (7.1) %; Subjects who experienced a treatment-emergent ocular adverse event, study eye [1]: 7.1%; Subjects completing the surgery: No [2]: 0 (0) n (%); Subjects completing the surgery: Yes [2]: 79 (100.0) n (%)

Which results are given for `Cc1ncc2n1-c1ccc(Cl)cc1C(c1ccccc1F)=NC2` [Midazolam, 8-chloro-6-(2-fluorophenyl)-1-methyl-4H-imidazo[1,5-a][1,4]benzodiazepine]?
Preoperative procedural sedation responder - % ([3]; All-Treated Analysis Set): 73.0%; Preoperative procedural sedation responder - n ([3]; All-Treated Analysis Set): 65; Preoperative procedural sedation responder - % ([3]; ITT Analysis Set): 73.0%; Preoperative procedural sedation responder - n ([3]; ITT Analysis Set): 65; Preoperative procedural sedation responders ([3]; ITT analysis set): 73.0%; Preoperative procedural sedation responder - % ([3]; PP Analysis Set): 73.0%; Preoperative procedural sedation responder - n ([3]; PP Analysis Set): 65; Preoperative procedural sedation responders ([3]; PP analysis set): 73.0%; Preoperative procedural sedation responders ([3]; all-treated analysis set): 73.0%; Cataract operation complication, % ([1]; Either Eye): (0) %; Conjunctivitis bacterial, % ([1]; Either Eye): (0) %; Corneal abrasion, % ([1]; Either Eye): (0) %; Corneal oedema, % ([1]; Either Eye): (0) %; Endophthalmitis, % ([1]; Either Eye): (0) %; Eye disorders, % ([1]; Either Eye): (5.7) %; Eye pain, % ([1]; Either Eye): (3.4) %; Foreign body sensation in eyes, % ([1]; Either Eye): (0) %; General disorders and administration site conditions, % ([1]; Either Eye): (0) %; Infections and infestations, % ([1]; Either Eye): (0) %; Injury, poisoning and procedural complications, % ([1]; Either Eye): (1.1) %; Intraocular pressure increased, % ([1]; Either Eye): (2.3) %; Investigations, % ([1]; Either Eye): (2.3) %; Ocular hypertension, % ([1]; Either Eye): (1.1) %; Pain, % ([1]; Either Eye): (0) %; Paracentesis eye, % ([1]; Either Eye): (0) %; Procedural pain, % ([1]; Either Eye): (1.1) %; Subjects with Any Treatment-Emergent Ocular AEs, % ([1]; Either Eye): (9.2) %; Vision blurred, % ([1]; Either Eye): (1.1) %; Paracentesis eye, % [1, 7]: (0) %; Conjunctivitis bacterial, % ([1]; Non-Study Eye): (0) %; Eye disorders, % ([1]; Non-Study Eye): (1.1) %; Eye pain, % ([1]; Non-Study Eye): (0) %; Infections and infestations, % ([1]; Non-Study Eye): (0) %; Subjects with Any Treatment-Emergent Ocular AEs, % ([1]; Non-Study Eye): (1.1) %; Vision blurred, % ([1]; Non-Study Eye): (1.1) %; Cataract operation complication, % ([1]; Study Eye): (0) %; Corneal abrasion, % ([1]; Study Eye): (0) %; Corneal oedema, % ([1]; Study Eye): (0) %; Endophthalmitis, % ([1]; Study Eye): (0) %; Eye disorders, % ([1]; Study Eye): (4.6) %; Eye pain, % ([1]; Study Eye): (3.4) %; Foreign body sensation in eyes, % ([1]; Study Eye): (0) %; General disorders and administration site conditions, % ([1]; Study Eye): (0) %; Infections and infestations, % ([1]; Study Eye): (0) %; Injury, poisoning and procedural complications, % ([1]; Study Eye): (1.1) %; Intraocular pressure increased, % ([1]; Study Eye): (2.3) %; Investigations, % ([1]; Study Eye): (2.3) %; Ocular hypertension, % ([1]; Study Eye): (1.1) %; Pain, % ([1]; Study Eye): (0) %; Procedural pain, % ([1]; Study Eye): (1.1) %; Subjects with Any Treatment-Emergent Ocular AEs, % ([1]; Study Eye): (8.0) %; Subjects who experienced a treatment-emergent ocular adverse event, study eye [1]: 8.0%; Patient Satisfaction Scores, Max ([4]; 5-point Likert scale): 5; Patient Satisfaction Scores, Mean ± SD ([4]; 5-point Likert scale): 4.8 ± 0.55; Patient Satisfaction Scores, Median ([4]; 5-point Likert scale): 5.0; Patient Satisfaction Scores, Min ([4]; 5-point Likert scale): 2; Patient Satisfaction Score 1 = Very Dissatisfied [4]: 0 n; Completed surgery without intervention due to pain or anxiety ([5]; ITT Analysis Set): 89 (100.0) n (%); Completed the surgery ([5]; ITT Analysis Set): 89 (100.0) n (%); Subjects who completed the surgery ([5]; ITT analysis set): 100.0%; Subjects Completed Surgery, % ([5]; Summary of Disposition, value in parentheses, percent of ITT set): (100); Surgeon Satisfaction Scores, Max ([6]; 5-point Likert scale): 5; Surgeon Satisfaction Scores, Mean ± SD ([6]; 5-point Likert scale): 4.8 ± 0.56; Surgeon Satisfaction Scores, Median ([6]; 5-point Likert scale): 5.0; Surgeon Satisfaction Scores, Min ([6]; 5-point Likert scale): 2; Surgeon Satisfaction Score 1 = Very Dissatisfied [6]: 0 n; Subjects completing the surgery: No [2]: 0 (0) n (%); Subjects completing the surgery: Yes [2]: 81 (100.0) n (%)
